Reference: article PMC12354831 (Cell Death Discovery, 2025)

How the values were obtained:
GLUT3 N413A = target: T1, GLUT3 N413A (Homo sapiens, UniProt P11169, N413A); assay: TMZ uptake by U251-MG cells stably expressing GLUT3 N413A vs WT GLUT3 (LC-MS/MS); assay type: in vitro ADME
T1 construct: expressed in transfected cells; host or cells: U87 and U343 per methods
T1 sequence (P11169 1-496 N413A): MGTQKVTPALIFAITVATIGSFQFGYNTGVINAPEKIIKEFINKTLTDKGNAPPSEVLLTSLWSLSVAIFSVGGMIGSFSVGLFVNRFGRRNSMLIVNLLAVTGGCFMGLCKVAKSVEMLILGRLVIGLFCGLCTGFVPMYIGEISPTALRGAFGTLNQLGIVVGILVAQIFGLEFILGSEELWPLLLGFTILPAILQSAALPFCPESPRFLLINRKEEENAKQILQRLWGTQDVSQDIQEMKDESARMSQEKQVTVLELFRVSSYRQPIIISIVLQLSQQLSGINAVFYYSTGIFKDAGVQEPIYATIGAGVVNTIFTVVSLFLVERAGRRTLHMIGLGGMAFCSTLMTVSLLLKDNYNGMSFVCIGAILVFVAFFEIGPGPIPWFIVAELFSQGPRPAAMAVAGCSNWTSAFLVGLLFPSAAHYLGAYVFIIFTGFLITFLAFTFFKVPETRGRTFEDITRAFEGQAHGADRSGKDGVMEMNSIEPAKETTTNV
Method: A total of 6 × 10^6 cells were seeded into each well of a 6 cm Petri dish and cultured at 37 °C in a humidified atmosphere containing 5% CO2 for 8 h. The cells were then washed twice with PBS (137 mM NaCl, 2.7 mM KCl, 10 mM Na2HPO4, 1.8 mM KH2PO4, pH 7.4) and incubated in transport buffer (140 mM NaCl, 5 mM KCl, 2 mM MgCl2, 2 mM CaCl2, 30 mM Tris-HCl, pH 7.4) for 15 min at 37 °C. […] Cell supernatants were collected and stored at 4 °C for subsequent extraction. The harvested cells were washed three times with PBS and extracted with 500 µL of 80% methanol for 30 min at −80 °C. The cell lysate was then centrifuged at 14,000 × g for 5 min at 4 °C, followed by 2 min of sonication. The supernatant was transferred to a new centrifuge tube. For LC-MS/MS analysis, the cell supernatants and cell lysates were diluted at a specific ratio. A total of 100 µL of each sample was mixed with 100 µL of acetonitrile (or standard reagent) and 300 µL of internal standard solution (^2H3-TMZ 100 ng/mL and ^2H11-CAPE 20 ng/mL dissolved in acetonitrile). […] Quality control (QC) samples were prepared and analyzed alongside the experimental samples to monitor the stability and repeatability of the instrument. QC samples were inserted regularly and analyzed every 6–12 samples. Each experiment was repeated 5–6 times. […]

[1] = tested on: U251-MG cell-derived xenograft; assay: Tumor growth in U251-MG cell-derived xenograft model; assay type: in vivo, nude mice (BALB/c-nu); conditions: TMZ 40 mg/kg or CAPE 20 mg/kg every 3 days; for effect of fasting on tumor growth under drug treatment: GLUT3-overexpressing tumors, 24 h fast before each dose vs non-fasting; for effect on tumor growth vs saline groups: nude mice
Method: All animal studies were approved and supervised by the Ethics Committee for Animal Use and Care at Peking University. Nude mice (BALB/c-nu) were purchased and maintained as previously described. For the establishment of xenograft tumor models, 1 × 10^6 U251-MG cells (either negative vector control or overexpressing GLUT3) were injected into the bilateral axillary fossae of 4-week-old nude mice. After 7 days, when palpable tumors had formed, the mice were randomly divided into six experimental groups (n = 7 per group), and treatment was initiated immediately.
Tumor diameters were measured every 4 days using calipers. At the end of the study, all mice were sacrificed, and the tumors were carefully excised and weighed. Tumor volume was calculated using the formula V = (length*width^2)/2. Data were analyzed using statistical software to evaluate the differences among groups.

Compound	reduction in drug uptake (GLUT3 N413A)	effect of fasting on tumor growth under drug treatment [1]	effect on tumor growth vs saline groups [1]
Cn1nnc2c(C(N)=O)ncn2c1=O [TMZ]	40–50%	significantly inhibited tumor growth	reducing tumor weights and volumes
CCCCCOC(=O)Nc1nc(=O)n([C@@H]2O[C@H](C)[C@@H](O)[C@H]2O)cc1F [CAPE, capecitabine]	–	significantly inhibited tumor growth	reducing tumor weights and volumes
